From PubChem BioAssay AID588647 (Sanford-Burnham Center for Chemical Genomics, 2011)
Where “and” joins values, the source holds several entries; their conditions need not be identical. Identical values can stand only once. Calls of active or inactive are those of the source. How the calls were made is not given here.

Target: intestinal alkaline phosphatase (Mus musculus)
Assay: mouse IAP inhibition by analogs – biochemical, luminescence, set 2, SAR follow-up (AID 588647)
Details: purified mouse IAP, luminescent substrate read-out

| IC50 | SMILES |
| --- | --- |
| 1.4 µM and > 100 µM (inactive) | N#Cc1cccc(NC(=O)CNS(=O)(=O)c2ccc3[nH]c(=O)oc3c2)c1 |
| > 100 µM (inactive) | CC(C)c1ccc(NC(=O)CCNS(=O)(=O)c2ccc3c(c2)oc(=O)n3C)cc1 |
| 88 µM | O=C(CCNS(=O)(=O)c1ccc2[nH]c(=O)oc2c1)NCc1ccc(Cl)cc1 |
| 70 µM | O=C(CCNS(=O)(=O)c1ccc2[nH]c(=O)oc2c1)NCc1cccc(C(F)(F)F)c1 |
| 1.6 µM and > 100 µM (inactive) | O=C(CCCNS(=O)(=O)c1ccc2[nH]c(=O)oc2c1)NCc1ccccc1Cl |
| 3 µM and 2.3 µM | COc1ccc(CNC(=O)CCNS(=O)(=O)c2ccc3[nH]c(=O)oc3c2)cc1 |
| > 100 µM (inactive) | COc1ccc(CNC(=O)CCNS(=O)(=O)c2ccc3ccccc3c2)c(OC)c1 |
| 84 µM | Cc1ccc(NC(=O)CCNS(=O)(=O)c2ccc3[nH]c(=O)oc3c2)cc1C |
| > 100 µM (inactive) | COc1cccc(C(=O)N/N=C/c2ccccc2F)c1 |
| 2.8 µM and 13 µM | O=C(CCCNS(=O)(=O)c1ccc2[nH]c(=O)oc2c1)NCc1cccc(F)c1 |
| > 100 µM (inactive) | O=C(CCNS(=O)(=O)c1ccc2[nH]c(=O)oc2c1)NCc1ccccc1F |
| > 100 µM (inactive) | O=C(N/N=C/c1c(F)cccc1Cl)c1ccc(O)cc1O |
| > 100 µM (inactive) | O=C(CCNS(=O)(=O)c1ccc2[nH]c(=O)oc2c1)NCc1ccc(C(F)(F)F)cc1 |
| 45 µM | O=C(CCCNS(=O)(=O)c1ccc2[nH]c(=O)oc2c1)NCc1ccc2c(c1)OCO2 |
| > 100 µM (inactive) | Cc1ccc(CNC(=O)C2CCCN(S(=O)(=O)c3ccc4[nH]c(=O)oc4c3)C2)cc1 (stereo unspecified) |
| 94 µM | Cc1cc(NC(=O)CCNS(=O)(=O)c2ccc3[nH]c(=O)oc3c2)ccc1Br |
| 19.9 µM | O=C(N/N=C/c1cccc(Cl)c1Cl)c1cc(O)c(O)c(O)c1 |
| 0.89 µM and 2.1 µM and 2.5 µM | COc1ccc(CNC(=O)CNS(=O)(=O)c2ccc3[nH]c(=O)oc3c2)cc1 |
| > 100 µM (inactive) | O=C(N/N=C/c1ccc(Br)cc1F)c1cc(O)ccc1O |
| 78 µM | COc1ccc(CNC(=O)CCCNS(=O)(=O)c2ccc3[nH]c(=O)oc3c2)cc1OC |
| 98 µM | COc1ccc(CNS(=O)(=O)c2ccc3[nH]c(=O)oc3c2)cc1 |
| > 100 µM (inactive) | O=c1[nH]c2ccc(S(=O)(=O)NCc3ccc4c(c3)OCO4)cc2o1 |
| 3.87 µM | COc1cc(/C=N/NC(=O)c2cc(O)c(O)c(O)c2)ccc1O |
| > 100 µM (inactive) | O=C(N/N=C/c1ccccc1F)c1ccccc1OCc1ccccc1 |

| IC50 | SMILES |
| --- | --- |
| > 100 µM (inactive) | CC(C)(C)c1ccc(/C=N/NC(=O)c2cc(O)c(O)c(O)c2)cc1 |
| > 100 µM (inactive) | COc1cc(C(=O)N/N=C/c2c(F)cccc2Cl)cc(OC)c1OC |
| 1.5 µM | COc1ccc(CCNC(=O)CCCNS(=O)(=O)c2ccc3[nH]c(=O)oc3c2)cc1OC |
| > 100 µM (inactive) | COc1ccc(NS(=O)(=O)c2ccc3[nH]c(=O)oc3c2)cc1OC |
| > 100 µM (inactive) | CCOc1cc(C(=O)N/N=C/c2ccccc2F)cc(OCC)c1OCC |
| > 100 µM (inactive) | Cc1ccc(C)c(NC(=O)C2CCCN(S(=O)(=O)c3ccc4c(c3)oc(=O)n4C)C2)c1 (stereo unspecified) |
| > 100 µM (inactive) | COc1ccc(CNC(=O)CCNS(=O)(=O)c2ccc3c(c2)CCC3)c(OC)c1 |
| > 100 µM (inactive) | CCc1ccc(NC(=O)C2CCCN(S(=O)(=O)c3ccc4c(c3)oc(=O)n4C)C2)cc1 (stereo unspecified) |
| > 100 µM (inactive) | COc1ccc(CNC(=O)C2CCCN(S(=O)(=O)c3ccc4[nH]c(=O)oc4c3)C2)cc1 (stereo unspecified) |
| > 100 µM (inactive) | O=C(N/N=C/c1c(F)cccc1F)c1ccc(O)cc1 |
| > 100 µM (inactive) | CSc1cccc(NC(=O)CCNS(=O)(=O)c2ccc3c(c2)oc(=O)n3C)c1 |
| > 100 µM (inactive) | O=C(N/N=C/c1ccccc1F)c1ccc(O)cc1O |
| 86 µM | O=C(CCS(=O)(=O)Nc1ccc2[nH]c(=O)oc2c1)NCc1ccccc1Cl |
| 67 µM | O=C(CCS(=O)(=O)Nc1ccc2[nH]c(=O)oc2c1)NCc1cccc(Cl)c1 |
| > 100 µM (inactive) | O=C(NCc1ccc(F)cc1)C1CCCN(S(=O)(=O)c2ccc3[nH]c(=O)oc3c2)C1 (stereo unspecified) |
| > 100 µM (inactive) | O=C(NCc1ccccc1)C1CCCN(S(=O)(=O)c2ccc3[nH]c(=O)oc3c2)C1 (stereo unspecified) |
| 1.5 µM | COc1ccc(NC(=O)CCCNS(=O)(=O)c2ccc3[nH]c(=O)oc3c2)cc1OC |
| > 100 µM (inactive) | COc1ccc(NC(=O)CCNS(=O)(=O)c2ccc3c(c2)CCC3)cc1OC |
| 12 µM | O=C(CCNS(=O)(=O)c1ccc2[nH]c(=O)oc2c1)Nc1ccc2c(c1)OCO2 |
| > 100 µM (inactive) | CN(C)c1ccc(CNC(=O)C2CCCN(S(=O)(=O)c3ccc4[nH]c(=O)oc4c3)C2)cc1 (stereo unspecified) |
| 0.93 µM and 0.54 µM | Cc1ccc(C)c(NC(=O)CNS(=O)(=O)c2ccc3[nH]c(=O)oc3c2)c1 |
| > 100 µM (inactive) | Cc1ccc(C)c(CNC(=O)C2CCCN(S(=O)(=O)c3ccc4[nH]c(=O)oc4c3)C2)c1 (stereo unspecified) |
| > 100 µM (inactive) | CSc1cccc(NC(=O)C2CCCN(S(=O)(=O)c3ccc4c(c3)oc(=O)n4C)C2)c1 (stereo unspecified) |
| 8.46 µM | O=C(N/N=C/c1ccccc1C(F)(F)F)c1cc(O)c(O)c(O)c1 |

| IC50 | SMILES |
| --- | --- |
| 9.66 µM | O=C(N/N=C/c1ccc(Cl)c(Cl)c1)c1cc(O)c(O)c(O)c1 |
| 40 µM | COc1cccc(CNS(=O)(=O)c2ccc3[nH]c(=O)oc3c2)c1 |
| > 100 µM (inactive) | COc1ccc(CNC(=O)CNS(=O)(=O)c2ccc3[nH]c(=O)oc3c2)c(OC)c1 |
| > 100 µM (inactive) | O=c1[nH]c2ccc(S(=O)(=O)Nc3ccc4c(c3)OCO4)cc2o1 |
| > 100 µM (inactive) | Cc1ccccc1CNC(=O)CCCNS(=O)(=O)c1ccc2[nH]c(=O)oc2c1 |
| > 100 µM (inactive) | CC(=NNC(=O)c1ccccc1OCCOc1ccccc1)c1ccccc1F |
| 78 µM | Cc1ccc(C)c(NC(=O)CCNS(=O)(=O)c2ccc3ccccc3c2)c1 |
| > 100 µM (inactive) | COc1ccc(C(=O)N/N=C/c2c(F)cccc2Cl)cc1OC |
| 7.7 µM | O=C(CCNS(=O)(=O)c1ccc2[nH]c(=O)oc2c1)NCc1ccc(O)c(O)c1 |
| > 100 µM (inactive) | COc1ccc(NC(=O)CCNS(=O)(=O)c2ccc3ccccc3c2)cc1OC |
| > 100 µM (inactive) | O=C(CCNS(=O)(=O)c1ccc2[nH]c(=O)oc2c1)NCc1cccc(F)c1 |
| 11.1 µM | O=C(N/N=C/c1c(Cl)cccc1Cl)c1cc(O)c(O)c(O)c1 |
| 89 µM | Cc1ccc(CNC(=O)CCNS(=O)(=O)c2ccc3[nH]c(=O)oc3c2)cc1 |
| > 100 µM (inactive) | CCOc1ccc(CNC(=O)C2CCCN(S(=O)(=O)c3ccc4[nH]c(=O)oc4c3)C2)cc1OC (stereo unspecified) |
| > 100 µM (inactive) | Cc1ccc(C)c(NS(=O)(=O)c2ccc3[nH]c(=O)oc3c2)c1 |
| 1.8 µM and 0.73 µM | COc1cccc(CNC(=O)CNS(=O)(=O)c2ccc3[nH]c(=O)oc3c2)c1 |
| 7.4 µM | COc1ccc(CCNC(=O)CCCNS(=O)(=O)c2ccc3[nH]c(=O)oc3c2)cc1 |
| > 100 µM (inactive) | O=C(CCNS(=O)(=O)c1ccc2[nH]c(=O)oc2c1)NCCc1ccc(O)cc1 |
| 57.5 µM | CC(C)c1ccc(/C=N/NC(=O)c2cc(O)c(O)c(O)c2)cc1 |
| 0.777 µM | C/C(=N\NC(=O)c1cc(O)c(O)c(O)c1)c1ccc(O)cc1O |
| > 100 µM (inactive) | CC(C)Oc1ccc(CNC(=O)C2CCCN(S(=O)(=O)c3ccc4[nH]c(=O)oc4c3)C2)cc1 (stereo unspecified) |
| > 100 µM (inactive) | O=C(CNS(=O)(=O)c1ccc2[nH]c(=O)oc2c1)NCCc1ccc2c(c1)OCO2 |
| 8.37 µM | O=C(N/N=C/c1ccc(F)c(Br)c1)c1cc(O)c(O)c(O)c1 |
| 89 µM | COc1ccc(CNS(=O)(=O)c2ccc3[nH]c(=O)oc3c2)c(OC)c1 |

| IC50 | SMILES |
| --- | --- |
| 0.53 µM and 0.54 µM | COc1ccc(NC(=O)CCNS(=O)(=O)c2ccc3[nH]c(=O)oc3c2)cc1OC |
| > 100 µM (inactive) | CC(C)c1ccc(NC(=O)C2CCCN(S(=O)(=O)c3ccc4c(c3)oc(=O)n4C)C2)cc1 (stereo unspecified) |
| > 100 µM (inactive) | COc1ccc(/C=N/NC(=O)c2cc(O)c(O)c(O)c2)cc1OC |
| > 100 µM (inactive) | Cc1ccc(NC(=O)CCNS(=O)(=O)c2ccc3c(c2)oc(=O)n3C)cc1C |
| > 100 µM (inactive) | CCc1ccc(NC(=O)CCNS(=O)(=O)c2ccc3c(c2)oc(=O)n3C)cc1 |
| > 100 µM (inactive) | N#Cc1cccc(NS(=O)(=O)c2ccc3[nH]c(=O)oc3c2)c1 |
| > 100 µM (inactive) | O=C(NCc1ccc2c(c1)OCO2)C1CCCN(S(=O)(=O)c2ccc3[nH]c(=O)oc3c2)C1 (stereo unspecified) |
| 81 µM | O=C(CCNS(=O)(=O)c1ccc2[nH]c(=O)oc2c1)NCc1ccccc1 |
| > 100 µM (inactive) | O=C(CCNS(=O)(=O)c1ccc2c(c1)CCC2)NCCc1ccc2c(c1)OCO2 |
| 27.9 µM | COc1ccc(/C=N\NC(=O)c2cc(O)c(O)c(O)c2)cc1CN1CCN(c2ccc(F)cc2)CC1 |
| > 100 µM (inactive) | COc1ccccc1CNC(=O)CCNS(=O)(=O)c1ccc2[nH]c(=O)oc2c1 |
| > 100 µM (inactive) | COc1ccc(C(=O)N/N=C/c2ccccc2F)cc1 |
| 4.01 µM | COc1cccc(/C=N/NC(=O)c2cc(O)c(O)c(O)c2)c1O |
| > 100 µM (inactive) | O=C(CCNS(=O)(=O)c1ccc2ccccc2c1)NCCc1ccc2c(c1)OCO2 |
| > 100 µM (inactive) | COc1ccc(OC)c(NC(=O)C2CCCN(S(=O)(=O)c3ccc4c(c3)oc(=O)n4C)C2)c1 (stereo unspecified) |
| 0.82 µM and 34 µM and > 100 µM (inactive) | COc1cccc(CNC(=O)CCNS(=O)(=O)c2ccc3[nH]c(=O)oc3c2)c1 |
| 1.6 µM and 4.7 µM | N#Cc1ccc(NC(=O)CNS(=O)(=O)c2ccc3[nH]c(=O)oc3c2)cc1 |
| 2 µM | N#Cc1cccc(CNC(=O)CCNS(=O)(=O)c2ccc3[nH]c(=O)oc3c2)c1 |
| 66 µM | O=C(CCS(=O)(=O)Nc1ccc2[nH]c(=O)oc2c1)NCc1cccc(F)c1 |
| 6.3 µM | COc1ccc(NC(=O)CCCNS(=O)(=O)c2ccc3[nH]c(=O)oc3c2)c(OC)c1 |
| > 100 µM (inactive) | O=C(N/N=C/c1ccc(F)cc1F)c1ccc(O)cc1 |
| > 100 µM (inactive) | Cc1ccc(C)c(NC(=O)CCNS(=O)(=O)c2ccc3c(c2)CCC3)c1 |
| 8.41 µM | COc1ccc(/C=N/NC(=O)c2cc(O)c(O)c(O)c2)c(OC)c1 |
| > 100 µM (inactive) | O=C(N/N=C/c1cc(Br)ccc1F)c1ccc(O)cc1 |
